Key:
[1] = tested on: cellular histone deacetylase enzymatic activity in Jurkat E6-1 cells; assay: Inhibition of cellular HDAC activity, Boc-Lys(Tfa)-AMC substrate (Cell Lys-TFA); format: cell-based; details: Homo sapiens, Jurkat E6.1, Lys-TFA substrate
Description: The potency of the compounds is quantified by measuring the cellular histone deacetylase enzymatic activity using the fluorogenic substrate, Boc-Lys(Tfa)-AMC. After penetration in Jurkat E6-1 cells, the substrate is deacetylated to Boc-Lys-AMC. After cell lysis and cleavage by trypsin, the fluorophore AMC is released from the deacetylated substrate only. The fluorescence of the sample is directly related to the histone deacetylase activity in the sample.
Jurkat E6.1 cells are cultured according to standard cell culture protocols in Jurkat E6.1 Growth Media (RPMI without phenol red, 10% FBS, 10 mM HEPES, and 1 mM Sodium Pyruvate). Jurkat E6.1 cells are counted using a Coulter Counter and resuspended in Jurkat E6.1 growth media at a concentration of 75,000 cells/35 μL. 35 μL or 75,000 cells is seeded into Greiner microtitre assay plates. The plates are then incubated at 37° C. and 5% CO2 while other assay components are being prepared.
(§1) Stocks of 70 μL aliquots of the 10 mM compound in DMSO are prepared and stored at −20° C. From one stock aliquot of each compound to be tested and the reference compound, a 16-point serial dilution is prepared according to Table 1 using a 125 μL 16-channel Matrix multi-channel pipette.
2 μL (200×) of each diluted solution and each control (full activity: 100% DMSO alone or full inhibition 1 mM) is stamped into V-bottom polypropylene 384-well compound plates using either the Bravo, Janus, or 12.5 μL 16-channel Matrix multi-channel pipette. Each well with the 200× compound solution is diluted 1:20 by the addition of 38 μL Jurkat assay buffer+DMSO (9.5% DMSO, RPMI without phenol red, 0.09% FBS, 9 mM Hepes, and 0.9 mM Sodium Pyruvate equilibrated to room temperature)
5× (500 μM) substrate is prepared just prior to the addition to the assay. The 5× substrate is prepared by diluting a 100 mM Boc-Lys(Tfa)-AMC in DMSO solution 1:200 by adding it drop-wise to Jurkat assay medium (RPMI without phenol red, 0.1% FBS, 10 mM Hepes, and 1 mM Sodium Pyruvate equilibrated to 37° C.) while vortexing at slow speed to prevent precipitation.
10 mL of 3× lysis buffer is prepared with 8.8 ml of 3× stock lysis buffer (50 mM Tris-HCl, pH 8.0, 137 mM NaCl, 2.7 mM KCl, 1 mM MgCl2, 1% Nonidet P40 Substitute equilibrated to room temperature) and 1.2 mL of 3 mg/mL Trypsin equilibrated to room temperature.
5 μL of each solution of 1:20 diluted compound from above is transferred to the Greiner microtitre assay plates with 75,000 cells/well using the Bravo. Cells are then incubated for 2 hours at 37° C. and 5% CO2. […] The cells are then incubated for 3 hours at 37° C. and 5% CO2. Next, 25 μL of 3× lysis buffer is added to each well using either the 125 μL 16 channel pipette or the Bravo. The assay plate is then incubated overnight (15-16 hours) at 37° C. and 5% CO2. The following day, the plates are shaken on an orbital shaker for 1 minute at 900 rpm. Finally the top read fluorescence (Excitation: 355 nm, Emission: 460 nm) is measured using PerkinElmer EnVision.

[2] = biological target: Histone Deacetylase 4 (HDAC4) catalytic domain (Homo sapiens (Human), UniProt P56524); assay: Biochemical HDAC inhibition assay, fluorogenic substrate Boc-Lys(Tfa)-AMC
Description: The potency of compounds is quantified by measuring the Histone Deacetylase 4 (HDAC4) catalytic domain enzymatic activity using the fluorogenic substrate, Boc-Lys(Tfa)-AMC. The substrate is deacetylated to Boc-Lys-AMC by HDAC4. Cleavage by trypsin results in the release of the fluorophore AMC from the deacetylated substrate. The fluorescence of the sample is directly related to the histone deacetylase activity in the sample.
as §1, with “60” for “70”, “pipette (Matrix Technologies Ltd).” for “pipette.”
2 μL (200×) of each diluted solution and each control (full activity: 100% DMSO alone or full inhibition 1 mM) is stamped into V-bottomed polypropylene 384-well compound plates using either the Bravo (384-well head from Agilent) or 12.5 μL 16-channel Matrix multi-channel pipette (Matrix Technologies Ltd). Each well with the 200× compound solution is diluted 1:20 by the addition of 38 μL assay buffer+DMSO (10.5% DMSO, 45 mM Tris-HCl, 123 mM NaCl, 2.4 mM KCl, and 0.9 mM MgCl2 at pH 8.0 and equilibrated to room temperature).
The HDAC4 catalytic domain enzyme is human catalytic domain HDAC4 protein (amino acids 648-1032) with a C-terminal 6× histidine tag, produced by BioFocus. A working solution of enzyme is prepared from a 500 μg/mL stock aliquot of HDAC4 catalytic domain (thawed on ice) diluted to 0.2 μg/mL with assay buffer (50 mM Tris-HCl, 137 mM NaCl, 2.7 mM KCl, and 1 mM MgCl2 at pH 8 and equilibrated to room temperature) just prior to the addition of the enzyme to the assay.
5× (50 μM) substrate is prepared just prior to the addition to the assay. A 1 mM substrate stock is made by diluting a 100 mM Boc-Lys(Tfa)-AMC in DMSO solution 1:100 by adding it drop-wise to assay buffer (equilibrated to room temperature) while vortexing at slow speed to prevent precipitation. The 5× substrate is prepared by diluting the 1 mM substrate solution 1:20 by adding it drop-wise to assay buffer (equilibrated to room temperature) while vortexing at slow speed to prevent precipitation.
3× (30 μM) Developer/Stop Solution is prepared just prior to addition to the plate by diluting a stock solution of 10 mM reference compound 1:333 in 25 mg/mL trypsin (PAA Laboratories Ltd.) equilibrated to room temperature.
5 μL of each solution of 1:20 diluted compound from above is transferred to a clear bottomed, black, 384-well assay plate using the Bravo or the Janus (384-well MDT head from Perkin Elmer). Using a 16-channel Matrix multi-channel pipette, 35 μL of the working solution of HDAC4 catalytic domain enzyme (0.2 μg/mL in assay buffer) is transferred to the assay plate. […] The assay plate is then shaken for two minutes on an orbital shaker at 900 rpm (rotations per minute). Next the plate is incubated for 15 minutes at 37° C. The reaction is stopped by adding 25 μL of 3× (30 μM) developer/stop solution to the assay plates using either the Bravo, Janus or a 16-channel Matrix multi-channel pipette. Assay plates are then shaken for 5 minutes on an orbital shaker at 1200 rpm. Next, the assay plates are incubated at 37° C. for 1 hour in a tissue culture incubator. Finally, the fluorescence is measured (Excitation: 355 nm, Emission: 460 nm) using PerkinElmer EnVision in top read mode.

[3] = tested on: cellular histone deacetylase activity (Lys-Ac); assay: Inhibition of cellular HDAC activity (Cell Lys-Ac); format: cell-based; details: Lys-Ac substrate

Sequence of Histone Deacetylase 4 (HDAC4) catalytic domain (P56524 648-1032): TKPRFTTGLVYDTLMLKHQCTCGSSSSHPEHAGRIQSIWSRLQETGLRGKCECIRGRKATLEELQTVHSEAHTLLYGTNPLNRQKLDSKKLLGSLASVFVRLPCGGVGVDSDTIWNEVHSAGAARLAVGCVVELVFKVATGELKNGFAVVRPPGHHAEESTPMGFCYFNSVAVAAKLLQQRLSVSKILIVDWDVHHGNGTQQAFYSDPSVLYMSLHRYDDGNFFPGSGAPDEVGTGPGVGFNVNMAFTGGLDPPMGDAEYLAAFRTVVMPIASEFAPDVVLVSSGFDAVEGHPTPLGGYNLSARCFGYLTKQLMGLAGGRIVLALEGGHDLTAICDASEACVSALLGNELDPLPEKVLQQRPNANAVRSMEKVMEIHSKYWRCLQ

Row | SMILES | IC50 [1] [nM] | IC50 [2] [nM] | IC50 [3] [nM]
1 | Cc1c(F)cccc1[C@]1(C(=O)NO)Cc2cnn(-c3cccc(Cl)c3)c2C1 [Example 4, (S)-1-(3-Chlorophenyl)-5-(3-fluoro-2-methylphenyl)-N-hydroxy-1,4,5,6-tetrahydrocyclopenta[c]pyrazole-5-carboxamide] | 72 | 61 | > 50000
2 | Cc1c(F)cccc1[C@]1(C(=O)NO)Cc2cnn(-c3ccc(F)cc3)c2C1 [Example 5, (S)-5-(3-Fluoro-2-methylphenyl)-1-(4-fluorophenyl)-N-hydroxy-1,4,5,6-tetrahydrocyclopenta[c]pyrazole-5-carboxamide] | 99 | 53 | > 50000
3 | Cc1c(F)cccc1[C@]1(C(=O)NO)Cc2cnn(-c3cccc(F)c3)c2C1 [Example 6, (S)-5-(3-Fluoro-2-methylphenyl)-1-(3-fluorophenyl)-N-hydroxy-1,4,5,6-tetrahydrocyclopenta[c]pyrazole-5-carboxamide] | 67 | 44 | > 50000
4 | Cc1c(F)cccc1[C@]1(C(=O)NO)Cc2cnn(-c3ccccc3Cl)c2C1 [Example 7, (S)-1-(2-Chlorophenyl)-5-(3-fluoro-2-methylphenyl)-N-hydroxy-1,4,5,6-tetrahydrocyclopenta[c]pyrazole-5-carboxamide] | 13 | 15 | > 50000
5 | Cc1ccc(-n2ncc3c2C[C@](C(=O)NO)(c2cccc(F)c2C)C3)cc1 [Example 9, (S)-5-(3-Fluoro-2-methylphenyl)-N-hydroxy-1-(p-tolyl)-1,4,5,6-tetrahydrocyclopenta[c]pyrazole-5-carboxamide] | 82 | 39 | > 50000
6 | Cc1c(F)cccc1[C@]1(C(=O)NO)Cc2cnn(-c3cccc(Cl)c3F)c2C1 [Example 10, (S)-1-(3-Chloro-2-fluorophenyl)-5-(3-fluoro-2-methylphenyl)-N-hydroxy-1,4,5,6-tetrahydrocyclopenta[c]pyrazole-5-carboxamide] | 17 | 17 | > 50000
7 | Cc1ccc(C)c(-n2ncc3c2C[C@](C(=O)NO)(c2cccc(F)c2C)C3)c1 [Example 12, (S)-1-(2,5-Dimethylphenyl)-5-(3-fluoro-2-methylphenyl)-N-hydroxy-1,4,5,6-tetrahydrocyclopenta[c]pyrazole-5-carboxamide] | 18 | 21 | > 50000
8 | Cc1cccc(C)c1-n1ncc2c1C[C@](C(=O)NO)(c1cccc(F)c1C)C2 [Example 13, (S)-1-(2,6-Dimethylphenyl)-5-(3-fluoro-2-methylphenyl)-N-hydroxy-1,4,5,6-tetrahydrocyclopenta[c]pyrazole-5-carboxamide] | 12 | 27 | > 50000
9 | Cc1c(F)cccc1[C@]1(C(=O)NO)Cc2cnn(-c3c(F)cccc3Cl)c2C1 [Example 14, (S)-1-(2-Chloro-6-fluorophenyl)-5-(3-fluoro-2-methylphenyl)-N-hydroxy-1,4,5,6-tetrahydrocyclopenta[c]pyrazole-5-carboxamide] | 11 | 15 | > 50000
10 | Cc1cccc(F)c1-n1ncc2c1C[C@](C(=O)NO)(c1cccc(F)c1C)C2 [Example 15, (S)-5-(3-Fluoro-2-methylphenyl)-1-(2-fluoro-6-methylphenyl)-N-hydroxy-1,4,5,6-tetrahydrocyclopenta[c]pyrazole-5-carboxamide] | 32 | 19 | > 50000
11 | Cc1c(F)cccc1[C@]1(C(=O)NO)Cc2cnn(-c3ccc(F)cn3)c2C1 [Example 16, (S)-5-(3-Fluoro-2-methylphenyl)-1-(5-fluoropyridin-2-yl)-N-hydroxy-1,4,5,6-tetrahydrocyclopenta[c]pyrazole-5-carboxamide] | 69 | 31 | > 50000
12 | Cc1c(F)cccc1[C@]1(C(=O)NO)Cc2cnn(-c3ccc(F)cc3F)c2C1 [Example 17, (S)-1-(2,4-Difluorophenyl)-5-(3-fluoro-2-methylphenyl)-N-hydroxy-1,4,5,6-tetrahydrocyclopenta[c]pyrazole-5-carboxamide] | 39 | 29 | > 50000
13 | Cc1c(F)cccc1[C@]1(C(=O)NO)Cc2cnn(C3CCCC3)c2C1 [Example 18, (S)-1-Cyclopentyl-5-(3-fluoro-2-methylphenyl)-N-hydroxy-1,4,5,6-tetrahydrocyclopenta[c]pyrazole-5-carboxamide] | 163 | 37 | > 50000
14 | Cc1c(F)cccc1[C@]1(C(=O)NO)Cc2cnn(-c3cnccn3)c2C1 [Example 19, (S)-5-(3-Fluoro-2-methylphenyl)-N-hydroxy-1-(pyrazin-2-yl)-1,4,5,6-tetrahydrocyclopenta[c]pyrazole-5-carboxamide] | 53 | 38 | > 50000
15 | Cc1c(F)cccc1[C@]1(C(=O)NO)Cc2cnn(-c3ccc(OC(F)F)cc3)c2C1 [Example 20, (S)-1-(4-(Difluoromethoxy)phenyl)-5-(3-fluoro-2-methylphenyl)-N-hydroxy-1,4,5,6-tetrahydrocyclopenta[c]pyrazole-5-carboxamide] | 250 | 109 | > 50000
